# Assay results as given in ChEMBL document CHEMBL5365528, “Expanding the Role of Boron in New Drug Chemotypes: Properties, Chemistry, Pharmaceutical Potential of Hemiboronic Naphthoids” (J Med Chem, 2023).
# Calls of active or inactive are those of the source. No cut-off for these calls is given here.
# Assays:
# Staphylococcus aureus [1] = test: Antibacterial activity against Staphylococcus aureus ATCC 43300 assessed as inhibition of bacterial growth incubated for 18 hrs; assay type: functional
# Candida albicans [2] = test: Antifungal activity against Candida albicans UAMH 3489 assessed as inhibition of fungal growth incubated for 24 hrs; assay type: functional
# [3] = Kinetic solubility of the compound in PBS buffer at pH 7.4 measured after 2 hrs by LC-MS/MS analysis; assay type: physicochemical; details: read-out: Kinetic_solubility
# [4] = Protein binding in human plasma at 1 uM measured after 6 hrs by LC-MS/MS analysis; assay type: ADME, cell-free; details: read-out: PPB (converted)
# [5] = Dissociation constant, pKa of the compound in aqueous phosphate buffer with 3 to 4% DMSO; assay type: physicochemical
# [6] = Hepatic blood flow in human; assay type: ADME
# [7] = Half life in human hepatocytes at 1 uM by LC-MS/MS analysis; assay type: ADME, cell-based, Hepatocyte
# [8] = Lipophilicity, log D of the compound in Octanol/PBS buffer at pH 7.4 measured after 1 hr by LC-MS/MS analysis; assay type: physicochemical
# [9] = Lipophilicity, log P of the compound in octanol/water by RP-HPLC analysis; assay type: physicochemical
# [10] = Clearance in human hepatocytes at 1 uM measured per million cells by LC-MS/MS analysis; assay type: ADME, cell-based, Hepatocyte; details: read-out: CLH
# [11] = Permeability of the compound across apical to basolateral membrane in human Caco-2 cells at 10 uM measured for 90 mins by LC-MS/MS analysis; assay type: ADME, cell-based
# [12] = Permeability of the compound across basolateral to apical membrane in human Caco-2 cells at 10 uM measured for 90 mins by LC-MS/MS analysis; assay type: ADME, cell-based
# [13] = Efflux ratio of permeability across basolateral to apical membrane over apical to basolateral membrane in human Caco-2 cells at 10 uM measured for 90 mins by LC-MS/MS analysis; assay type: ADME, cell-based
# [14] = Dissociation constant, pKa of the compound in 1:1 CH3CN/aqueous phosphate buffer; assay type: physicochemical
# [15] = Stability of the compound in d6-DMSO with drop of D2O and measured for >1 month at room temperature by NMR spectroscopy; assay type: physicochemical; details: time > 1 months, read-out: Stability
# [16] = target: T1, Poly [ADP-ribose] polymerase 1 (Homo sapiens, UniProt P09874); test: Inhibition of N-terminal GST-tagged full length human PARP1 (2 to 1014 residues) expressed in baculovirus-infected Sf9 cells using histone as substrate incubated for 60 mins in presence of activated DNA, NAD+, NAD+-biotin by luminescence based analysis
# [17] = target: T2, Poly [ADP-ribose] polymerase 2 (Homo sapiens, UniProt Q9UGN5); test: Inhibition of N-terminal GST-tagged human PARP2 (2 to 583 residues) expressed in baculovirus-infected Sf9 cells using histone as substrate incubated for 60 mins in presence of activated DNA, NAD+, NAD+-biotin by luminescence based analysis
# Candida albicans [18] = test: Antifungal activity against Candida albicans UAMH 3489 assessed as inhibition of fungal growth at 100 uM incubated for 24 hrs; assay type: functional, organism-based
# Staphylococcus aureus [19] = test: Antibacterial activity against Staphylococcus aureus ATCC 43300 assessed as inhibition of bacterial growth at 100 uM incubated for 18 hrs; assay type: functional, organism-based
# [20] = target: 3',5'-cyclic-AMP phosphodiesterase 4B (Homo sapiens) (UniProt Q07343); test: Inhibition of N-terminal GST-tagged full length human PDE4B1 (1 to 736 residues) expressed in baculovirus-infected Sf9 cells using FAM-cAMP as substrate at 2 uM measured after 60 mins by fluorescence based analysis
# [21] = target: T1, Poly [ADP-ribose] polymerase 1; test: Inhibition of N-terminal GST-tagged full length human PARP1 (2 to 1014 residues) expressed in baculovirus-infected Sf9 cells using histone as substrate at 1000 nM incubated for 60 mins in presence of activated DNA, NAD+, NAD+-biotin by luminescence based analysis
# [22] = target: T2, Poly [ADP-ribose] polymerase 2; test: Inhibition of N-terminal GST-tagged human PARP2 (2 to 583 residues) expressed in baculovirus-infected Sf9 cells using histone as substrate at 1000 nM incubated for 60 mins in presence of activated DNA, NAD+, NAD+-biotin by luminescence based analysis
# [23] = target: 3',5'-cyclic-AMP phosphodiesterase 4B (Homo sapiens) (UniProt Q07343); test: Inhibition of N-terminal GST-tagged full length human PDE4B1 (1 to 736 residues) expressed in baculovirus-infected Sf9 cells using FAM-cAMP as substrate at 0.1 uM measured after 60 mins by fluorescence based analysis
# Chain of 3',5'-cyclic-AMP phosphodiesterase 4B (Homo sapiens) (Q07343 whole entry, the tested form may be a part): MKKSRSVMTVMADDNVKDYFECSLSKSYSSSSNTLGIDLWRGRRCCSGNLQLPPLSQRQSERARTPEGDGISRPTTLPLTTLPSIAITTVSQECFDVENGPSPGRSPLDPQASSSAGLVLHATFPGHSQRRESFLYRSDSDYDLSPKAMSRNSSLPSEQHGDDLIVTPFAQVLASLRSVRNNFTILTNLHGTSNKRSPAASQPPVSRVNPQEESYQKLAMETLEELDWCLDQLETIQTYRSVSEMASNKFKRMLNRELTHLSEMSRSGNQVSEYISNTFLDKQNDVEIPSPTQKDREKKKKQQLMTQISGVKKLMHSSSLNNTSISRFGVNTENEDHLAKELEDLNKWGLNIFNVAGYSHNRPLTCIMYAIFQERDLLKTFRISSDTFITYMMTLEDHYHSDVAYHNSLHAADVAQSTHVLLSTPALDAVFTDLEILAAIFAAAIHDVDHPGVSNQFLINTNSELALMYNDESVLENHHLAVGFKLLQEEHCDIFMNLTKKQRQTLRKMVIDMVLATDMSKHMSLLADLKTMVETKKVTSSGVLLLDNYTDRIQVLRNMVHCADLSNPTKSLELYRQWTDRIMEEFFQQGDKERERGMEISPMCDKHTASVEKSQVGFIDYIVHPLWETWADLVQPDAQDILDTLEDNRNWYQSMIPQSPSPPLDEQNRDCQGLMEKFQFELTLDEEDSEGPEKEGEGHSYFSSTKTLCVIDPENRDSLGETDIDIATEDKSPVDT
# T1 sequence (P09874 whole entry, the tested form may be a part): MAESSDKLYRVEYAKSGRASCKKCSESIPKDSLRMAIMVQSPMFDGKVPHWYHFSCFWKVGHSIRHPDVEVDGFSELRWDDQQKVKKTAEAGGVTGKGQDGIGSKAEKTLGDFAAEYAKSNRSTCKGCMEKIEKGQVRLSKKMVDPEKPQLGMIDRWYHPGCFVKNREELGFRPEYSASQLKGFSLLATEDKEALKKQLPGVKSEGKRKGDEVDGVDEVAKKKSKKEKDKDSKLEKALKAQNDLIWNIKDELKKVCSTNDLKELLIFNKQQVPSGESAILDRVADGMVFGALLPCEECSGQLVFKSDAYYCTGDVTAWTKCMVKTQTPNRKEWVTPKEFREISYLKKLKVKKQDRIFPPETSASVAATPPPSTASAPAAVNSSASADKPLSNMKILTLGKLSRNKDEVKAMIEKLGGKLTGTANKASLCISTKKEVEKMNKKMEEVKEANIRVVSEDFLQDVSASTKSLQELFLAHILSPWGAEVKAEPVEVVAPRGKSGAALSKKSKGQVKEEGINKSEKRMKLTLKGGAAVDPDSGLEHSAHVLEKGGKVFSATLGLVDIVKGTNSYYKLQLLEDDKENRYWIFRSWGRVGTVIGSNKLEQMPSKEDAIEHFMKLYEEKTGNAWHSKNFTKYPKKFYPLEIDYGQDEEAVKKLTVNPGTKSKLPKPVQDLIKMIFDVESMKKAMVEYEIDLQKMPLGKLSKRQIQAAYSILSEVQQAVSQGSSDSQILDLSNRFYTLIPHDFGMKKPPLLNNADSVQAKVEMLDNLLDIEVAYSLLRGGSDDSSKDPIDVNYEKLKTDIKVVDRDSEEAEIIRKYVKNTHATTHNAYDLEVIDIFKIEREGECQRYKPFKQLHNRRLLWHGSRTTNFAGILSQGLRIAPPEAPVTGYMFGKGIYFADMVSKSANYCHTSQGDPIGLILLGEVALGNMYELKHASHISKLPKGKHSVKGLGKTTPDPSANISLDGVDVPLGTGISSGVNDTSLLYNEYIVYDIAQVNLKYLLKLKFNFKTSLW
# T2 sequence (Q9UGN5 whole entry, the tested form may be a part): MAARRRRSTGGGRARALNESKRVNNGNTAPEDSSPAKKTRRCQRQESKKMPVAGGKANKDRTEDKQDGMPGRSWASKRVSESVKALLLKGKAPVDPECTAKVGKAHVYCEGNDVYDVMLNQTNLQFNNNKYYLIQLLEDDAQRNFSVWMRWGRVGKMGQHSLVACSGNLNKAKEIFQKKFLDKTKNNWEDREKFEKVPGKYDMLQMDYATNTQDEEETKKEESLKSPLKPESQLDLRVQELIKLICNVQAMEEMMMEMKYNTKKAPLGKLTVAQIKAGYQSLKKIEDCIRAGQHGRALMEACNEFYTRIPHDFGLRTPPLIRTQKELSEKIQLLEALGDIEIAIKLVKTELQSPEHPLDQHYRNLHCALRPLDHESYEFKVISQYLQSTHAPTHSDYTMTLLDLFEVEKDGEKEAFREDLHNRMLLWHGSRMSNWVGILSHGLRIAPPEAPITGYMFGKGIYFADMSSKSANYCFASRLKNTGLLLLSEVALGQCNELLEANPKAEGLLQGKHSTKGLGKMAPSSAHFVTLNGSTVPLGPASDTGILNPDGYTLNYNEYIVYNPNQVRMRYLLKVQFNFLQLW
smiles,measurement,setting,value
COc1ccc(C2=NOB(O)c3ccccc32)cc1,MIC,Staphylococcus aureus [1],64 µM
same,MIC,Candida albicans [2],32 µM
OB1OCc2cc(F)ccc21 [TAVABOROLE],MIC,Staphylococcus aureus [1],128 µM
same,MIC,Candida albicans [2],1 µM
same,solubility kinetic at 2 h,[3],> 658 µM
same,"fraction unbound at 6 h, 1 µM",[4],0.34
same,pKa,[5],7.4
OB1ON=Cc2cc(-c3ccoc3)ccc21,MIC,Candida albicans [2],2 µM
OB1NN=C(c2ccccc2)c2ccccc21,percent of hepatic blood flow,[6],65.2%
same,half-life at 1 µM,[7],1.81 h
same,logD at 1 h,[8],3.44
same,logP,[9],3.72
same,hepatocyte CLint at 1 µM,[10],12.8 µL/min/1e6 cells
same,solubility kinetic at 2 h,[3],189 µM
same,"fraction unbound at 6 h, 1 µM",[4],0.0141
same,"Papp A→B at 1.5 h, 10 µM",[11],26.9 ×10⁻⁶ cm/s
same,"Papp B→A at 1.5 h, 10 µM",[12],22.1 ×10⁻⁶ cm/s
same,"efflux ratio at 1.5 h, 10 µM",[13],0.82
same,pKa,[14],> 13
same,remaining at 730 h,[15],> 99%
same,pKa,[5],> 14
O=C(c1cc(CC2=NNB(O)c3ccccc32)ccc1F)N1CCN(C(=O)C2CC2)CC1,IC50,[16],~540 nM
same,IC50,[17],120 nM
OB1NN=Cc2cc(-c3ccc(C(F)(F)F)cc3)ccc21,Activity,Candida albicans [18],inactive
OB1ON=Cc2cc(F)ccc21,Activity,Staphylococcus aureus [19],inactive
same,MIC,Candida albicans [2],8 µM
OB1ON=Cc2cc(-c3ccc(C(F)(F)F)cc3)ccc21,MIC,Candida albicans [2],0.125 µM
OC(Cn1cncn1)(Cn1cncn1)c1ccc(F)cc1F [FLUCONAZOLE],MIC,Candida albicans [2],4 µM
CN(C)CCCN1c2ccccc2CCc2ccccc21 [IMIPRAMINE],solubility kinetic at 2 h,[3],457 µM
COc1ccc(C2=NOB(O)c3ccccc32)cc1Br,MIC,Staphylococcus aureus [1],16 µM
N#Cc1ccc(Oc2ccc3c(c2)C=NOB3O)cc1,Activity,Candida albicans [18],inactive
same,inhibition,[20],23%
COC(=O)C1=C(C)NC(C)=C(C(=O)OCCN(C)Cc2ccccc2)C1c1cccc([N+](=O)[O-])c1 (stereo unspecified) [NICARDIPINE],solubility kinetic at 2 h,[3],4.7 µM
C[C@H]1O[C@@H](O[C@H]2[C@@H](O)C[C@H](O[C@H]3[C@@H](O)C[C@H](O[C@H]4CC[C@@]5(C)[C@H](CC[C@@H]6[C@@H]5C[C@@H](O)[C@]5(C)[C@@H](C7=CC(=O)OC7)CC[C@]65O)C4)O[C@@H]3C)O[C@@H]2C)C[C@H](O)[C@@H]1O [DIGOXIN],"Papp A→B at 1.5 h, 10 µM",[11],1 ×10⁻⁶ cm/s
same,"Papp B→A at 1.5 h, 10 µM",[12],13.1 ×10⁻⁶ cm/s
same,"efflux ratio at 1.5 h, 10 µM",[13],13.4
OB1OCc2ccccc21 [BENZOXABOROLE],pKa,[14],9.2
same,pKa,[5],7.4
C[C@]12CC[C@H]3[C@@H](CCC4=CC(=O)CC[C@@]43C)[C@@H]1CC[C@@H]2O [TESTOSTERONE],percent of hepatic blood flow,[6],89.1%
same,half-life at 1 µM,[7],0.417 h
same,hepatocyte CLint at 1 µM,[10],60.2 µL/min/1e6 cells
OB1ON=Cc2cc(-c3ccccc3)ccc21,MIC,Candida albicans [2],8 µM
OB1ON=Cc2cc(-c3ccc(F)cc3)ccc21,MIC,Candida albicans [2],4 µM
CC(C)NCC(O)COc1cccc2ccccc12 (stereo unspecified) [PROPRANOLOL],"Papp A→B at 1.5 h, 10 µM",[11],3.4 ×10⁻⁶ cm/s
OB1ON=Cc2ccccc21,percent of hepatic blood flow,[6],81.2%
same,half-life at 1 µM,[7],0.785 h
same,logD at 1 h,[8],~0.65
same,logP,[9],1.23
same,hepatocyte CLint at 1 µM,[10],29.7 µL/min/1e6 cells
same,MIC,Candida albicans [2],16 µM
same,solubility kinetic at 2 h,[3],≥ 386 µM
same,"fraction unbound at 6 h, 1 µM",[4],0.71
same,"Papp A→B at 1.5 h, 10 µM",[11],33 ×10⁻⁶ cm/s
same,"Papp B→A at 1.5 h, 10 µM",[12],4.4 ×10⁻⁶ cm/s
same,"efflux ratio at 1.5 h, 10 µM",[13],0.13
same,pKa,[14],7.1
same,remaining at 730 h,[15],> 99%
same,pKa,[5],5.5
O=C(Nc1ccc2c(c1)B(O)NN=C2c1ccccc1)c1ccc(F)cc1C(F)(F)F,MIC,Staphylococcus aureus [1],64 µM
COc1ccc2c(c1)C(c1ccccc1)=NOB2O,MIC,Staphylococcus aureus [1],8 µM
OB1NN=Cc2cc(F)ccc21,MIC,Candida albicans [2],> 128 µM
O=C(Nc1ccc2c(c1)B(O)NN=C2)c1ccc(F)cc1C(F)(F)F,Activity,Staphylococcus aureus [19],inactive
OB1NN=C(c2ccccc2)c2cc(F)ccc21,Activity,Staphylococcus aureus [19],inactive
same,MIC,Candida albicans [2],> 128 µM
N#Cc1ccc(Oc2ccc3c(c2)C(c2ccccc2)=NOB3O)cc1,inhibition,[20],15%
OB1ON=C(c2ccccc2)c2cc(F)ccc21,MIC,Staphylococcus aureus [1],64 µM
same,MIC,Candida albicans [2],16 µM
N#Cc1ccc(Oc2ccc3c(c2)C=NNB3O)cc1,inhibition,[20],5%
O=C(c1cc(CC2=NOB(O)c3ccccc32)ccc1F)N1CCN(C(=O)C2CC2)CC1,IC50,[16],> 1000 nM
same,IC50,[17],> 1000 nM
same,inhibition,[21],inactive
same,inhibition,[22],18%
CCCC(=O)Nc1ccc(OCC(O)CNC(C)C)c(C(C)=O)c1 (stereo unspecified) [ACEBUTOLOL],"fraction unbound at 6 h, 1 µM",[4],0.707
OB1NN=Cc2ccccc21,percent of hepatic blood flow,[6],< 36.1%
same,half-life at 1 µM,[7],> 6 h
same,logD at 1 h,[8],2.03
same,logP,[9],1.94
same,hepatocyte CLint at 1 µM,[10],< 3.9 µL/min/1e6 cells
same,Activity,Candida albicans [18],inactive
same,solubility kinetic at 2 h,[3],≥ 439 µM
same,"fraction unbound at 6 h, 1 µM",[4],0.082
same,"Papp A→B at 1.5 h, 10 µM",[11],30.1 ×10⁻⁶ cm/s
same,"Papp B→A at 1.5 h, 10 µM",[12],30.6 ×10⁻⁶ cm/s
same,"efflux ratio at 1.5 h, 10 µM",[13],1
same,pKa,[14],> 14
same,remaining at 730 h,[15],> 99%
same,pKa,[5],> 14
OB1ON=C(c2ccccc2)c2ccccc21,percent of hepatic blood flow,[6],< 36.1%
same,half-life at 1 µM,[7],> 6 h
same,logD at 1 h,[8],0.71
same,logP,[9],2.6
same,hepatocyte CLint at 1 µM,[10],< 3.9 µL/min/1e6 cells
same,MIC,Staphylococcus aureus [1],128 µM
same,MIC,Candida albicans [2],32 µM
same,solubility kinetic at 2 h,[3],≥ 403 µM
same,"fraction unbound at 6 h, 1 µM",[4],0.102
same,"Papp A→B at 1.5 h, 10 µM",[11],34.5 ×10⁻⁶ cm/s
same,"Papp B→A at 1.5 h, 10 µM",[12],4 ×10⁻⁶ cm/s
same,"efflux ratio at 1.5 h, 10 µM",[13],0.12
same,pKa,[14],7
same,remaining at 730 h,[15],> 99%
same,pKa,[5],~5.5
OB1ON=Cc2cc(-c3ccsc3)ccc21,MIC,Candida albicans [2],2 µM
N#Cc1ccc(Oc2ccc3c(c2)COB3O)cc1,inhibition,[23],11%
CCCSc1ccc2nc(NC(=O)OC)[nH]c2c1 [ALBENDAZOLE],logD at 1 h,[8],3.57
CN[C@H](CC(C)C)C(=O)N[C@H]1C(=O)N[C@@H](CC(N)=O)C(=O)N[C@H]2C(=O)N[C@H]3C(=O)N[C@H](C(=O)N[C@H](C(=O)O)c4cc(O)cc(O)c4-c4cc3ccc4O)[C@H](O)c3ccc(c(Cl)c3)Oc3cc2cc(c3O[C@@H]2O[C@H](CO)[C@@H](O)[C@H](O)[C@H]2O[C@H]2C[C@](C)(N)[C@H](O)[C@H](C)O2)Oc2ccc(cc2Cl)[C@H]1O [VANCOMYCIN],MIC,Staphylococcus aureus [1],4 µM
